In ChEMBL document CHEMBL1147960, “Spectroscopic studies of DNA binding modes of cation-substituted anthrapyrazoles derived from emodin” (Eur J Med Chem, 2007):

Columns and labels:
[1] = Cytotoxicity against mouse LLC cells; format: functional, cell-based; details: Lewis lung carcinoma
DNA = test: Binding affinity to calf thymus DNA; format: nucleic-acid assay, Bos taurus
HepG2 = test: Cytotoxicity against human HepG2 cells; format: functional, cell-based
B16 = test: Cytotoxicity against mouse B16 cells; format: functional, cell-based

| SMILES | IC50 [1] | Kb (DNA) | IC50 (HepG2) | IC50 (B16) |
| --- | --- | --- | --- | --- |
| CCN(CC)CCn1nc2c3c(cc(C)cc31)C(=O)c1cc(OC)cc(OC)c1-2 | 4.5 µM | 552000 M⁻¹ | 4.9 µM | 3.6 µM |
| CCN(CC)CCNCCn1nc2c3c(cc(C)cc31)C(=O)c1cc(OC)cc(OC)c1-2 | 12.8 µM | 253000 M⁻¹ | 37.6 µM | 10.1 µM |
| COc1cc(OC)c2c(c1)C(=O)c1cc(C)cc3c1c-2nn3CCN1CCN(C)CC1 | 8.9 µM | 698000 M⁻¹ | 7.2 µM | 20.1 µM |
| Cc1cc(O)c2c(c1)C(=O)c1cc(O)cc(O)c1C2=O [EMODIN] | > 100 µM | 68000 M⁻¹ | 55.1 µM | > 100 µM |
